Paper PMC7031696 (Cell chemical biology, 2019)
Like-named read-outs stand apart in the source and are kept apart here.

How the values were obtained:
[1] = tested on: 3D7-MR4 trophozoite parasite-infected RBCs; experiment: Metabolomic profiling (hydrophilic metabolite changes, UHPLC-MS); type: cell-based, Plasmodium falciparum
[2] = tested on: 3D7-A10 or Dd2-B2 parasites; experiment: Resistance selections (single step, pulsing or ramping); type: cell-based, Plasmodium falciparum
[3] = tested on: Plasmodium falciparum 3D7-A10 parasites; experiment: Stage specificity assay (8-h exposure of synchronized stages, IC50^8h); type: cell-based; conditions: for IC50: Plasmodium falciparum
[4] = tested on: asynchronous 3D7-A10 parasite cultures; experiment: Standard 72-h exposure asexual blood stage susceptibility assay (IC50^72h); type: cell-based, Plasmodium falciparum; conditions: Plasmodium falciparum, 3D7, 72 h, read-out: Overall (72hr assay) Mean IC50 (IC50^72h)
[5] = 10 × IC50^72h, 2.5 hr, trophozoites

## CCCOCc1cc(CN2CCN(c3cccc(Cl)c3)CC2)c(O)c2ncccc12 [MMV000787]
[1]; [5]
  metabolic signature: increases in the pyrimidine precursors dihydroorotate and N-carbamoyl-L-aspartate (mETC disruption): observed
  orotidine 5-P levels: decreased
[1]; metabolite 3-phosphoglycerate, log2 fold change
  Log2(fold changes) 3-phosphoglycerate: -0.5371
[1]; metabolite 4-Pyridoxic acid, log2 fold change
  Log2(fold changes) 4-Pyridoxic acid: -0.4654
[1]; metabolite 4-aminobutyrate, log2 fold change
  Log2(fold changes) 4-aminobutyrate: 0.0414
[1]; metabolite 4-phosphopantetheine, log2 fold change
  Log2(fold changes) 4-phosphopantetheine: 0.0000
[1]; metabolite 4-phosphopantothenate, log2 fold change
  Log2(fold changes) 4-phosphopantothenate: -0.5845
[1]; metabolite 5-aminopentanoic acid, log2 fold change
  Log2(fold changes) 5-aminopentanoic acid: 0.0000
[1]; metabolite 5-methyl-THF, log2 fold change
  Log2(fold changes) 5-methyl-THF: 0.0000
[1]; metabolite 5-phosphoribosyl-1-pyrophosphate, log2 fold change
  Log2(fold changes) 5-phosphoribosyl-1-pyrophosphate: 0.0000
[1]; metabolite 6-phospho-D-gluconate, log2 fold change
  Log2(fold changes) 6-phospho-D-gluconate: -0.3590
[1]; metabolite HVDD
  Log2(fold change) HVDD: -0.3092
[1]; metabolite Hydroxyisocaproic acid
  Log2(fold change) Hydroxyisocaproic acid: 0.0000
[1]; metabolite IDP
  Log2(fold change) IDP: 0.0000
[1]; metabolite IMP
  Log2(fold change) IMP: -0.1140
[1]; metabolite Inositol
  Log2(fold change) Inositol: 0.0000
[1]; metabolite Isopentyl-PP
  Log2(fold change) Isopentyl-PP: -1.2940
[1]; metabolite L-arginino-succinate
  Log2(fold change) L-arginino-succinate: 0.4157
[1]; metabolite LD
  Log2(fold change) LD: 0.2463
[1]; metabolite Myristoyl/tetradecanoyl-CoA
  Log2(fold change) Myristoyl/tetradecanoyl-CoA: 0.0000
[1]; metabolite N-Acetyl-L-alanine
  Log2(fold change) N-Acetyl-L-alanine: -0.3215
[1]; metabolite N-acetyl-L-ornithine
  Log2(fold change) N-acetyl-L-ornithine: -0.0825
[1]; metabolite N-acetyl-glucosamine-1/6-phosphate
  Log2(fold change) N-acetyl-glucosamine-1/6-phosphate: -0.1305
[1]; metabolite N-acetyl-glutamate
  Log2(fold change) N-acetyl-glutamate: -0.2597
[1]; metabolite N-acetyl-glutamine
  Log2(fold change) N-acetyl-glutamine: -0.3137
[1]; metabolite N-carbamoyl-L-aspartate
  Log2(fold change) N-carbamoyl-L-aspartate: 1.8530
[1]; metabolite NAD+
  Log2(fold change) NAD+: -0.4850
[1]; metabolite NADH
  Log2(fold change) NADH: 0.6916
[1]; metabolite NADP+
  Log2(fold change) NADP+: -0.1054
[1]; metabolite NADPH
  Log2(fold change) NADPH: 0.8357
[1]; metabolite O-acetyl-L-serine
  Log2(fold change) O-acetyl-L-serine: 0.0023
[1]; metabolite Octoluse 8/1P
  Log2(fold change) Octoluse 8/1P: -0.4530
[1]; metabolite Octoluse Bisphosphate
  Log2(fold change) Octoluse Bisphosphate: -0.4981
[1]; metabolite PD
  Log2(fold change) PD: 0.8974
[1]; metabolite PE
  Log2(fold change) PE: 0.4326
[1]; metabolite PEE
  Log2(fold change) PEE: -0.3726
[1]; metabolite PEEK
  Log2(fold change) PEEK: 0.6684
[1]; metabolite PVNF
  Log2(fold change) PVNF: -0.7950
[1]; metabolite Pyroglutamic acid
  Log2(fold change) Pyroglutamic acid: -0.5088
[1]; metabolite Pyrophosphate
  Log2(fold change) Pyrophosphate: 0.0000
[1]; metabolite Ribose-5-phosphate
  Log2(fold change) Ribose-5-phosphate: -0.4878
[1]; metabolite S-adenosyl-L-homocysteine
  Log2(fold change) S-adenosyl-L-homocysteine: -0.1665
[1]; metabolite S-adenosyl-L-methioninamine
  Log2(fold change) S-adenosyl-L-methioninamine: 1.4172
[1]; metabolite S-adenosyl-L-methionine
  Log2(fold change) S-adenosyl-L-methionine: 0.0000
[1]; metabolite S-methyl-5'-thioadenosine
  Log2(fold change) S-methyl-5'-thioadenosine: 0.1323
[1]; metabolite SD
  Log2(fold change) SD: 0.5833
[1]; metabolite SDL
  Log2(fold change) SDL: 0.0000
[1]; metabolite SID
  Log2(fold change) SID: 0.2266
[1]; metabolite Sedoheptulose bisphosphate
  Log2(fold change) Sedoheptulose bisphosphate: -0.5430
[1]; metabolite Thiamine pyrophosphate
  Log2(fold change) Thiamine pyrophosphate: -0.2018
[1]; metabolite UDP-D-glucose, log2 fold change
  Log2(fold changes) UDP-D-glucose: -0.1946
[1]; metabolite UDP-D-glucuronate, log2 fold change
  Log2(fold changes) UDP-D-glucuronate: -0.2169
[1]; metabolite UDP-N-acetyl-glucosamine, log2 fold change
  Log2(fold changes) UDP-N-acetyl-glucosamine: -0.3874
[1]; metabolite UDP, log2 fold change
  Log2(fold changes) UDP: -0.9589
[1]; metabolite UMP, log2 fold change
  Log2(fold changes) UMP: -0.1735
[1]; metabolite UTP, log2 fold change
  Log2(fold changes) UTP: 0.0000
[1]; metabolite hydroxyphenylpyruvate
  Log2(fold change) hydroxyphenylpyruvate: 0.0000
[1]; metabolite hydroxyproline/Aminolevulinate
  Log2(fold change) hydroxyproline/Aminolevulinate: -0.3494
[1]; metabolite hypoxanthine
  Log2(fold change) hypoxanthine: -0.2301
[1]; metabolite indole
  Log2(fold change) indole: 0.0000
[1]; metabolite inosine
  Log2(fold change) inosine: -0.0358
[1]; metabolite isoleucine
  Log2(fold change) isoleucine: 0.0000
[1]; metabolite lactate
  Log2(fold change) lactate: -0.6338
[1]; metabolite leucine
  Log2(fold change) leucine: 0.0000
[1]; metabolite lysine
  Log2(fold change) lysine: -0.1255
[1]; metabolite malate
  Log2(fold change) malate: 0.0012
[1]; metabolite maleic acid
  Log2(fold change) maleic acid: 0.0284
[1]; metabolite methionine
  Log2(fold change) methionine: -0.0998
[1]; metabolite myo-inositol
  Log2(fold change) myo-inositol: -0.7776
[1]; metabolite nicotinamide mononucleotide
  Log2(fold change) nicotinamide mononucleotide: -0.2457
[1]; metabolite nicotinate
  Log2(fold change) nicotinate: -0.3114
[1]; metabolite ornithine
  Log2(fold change) ornithine: 0.0122
[1]; metabolite orotate
  Log2(fold change) orotate: 0.0632
[1]; metabolite orotidine-5'-phosphate
  Log2(fold change) orotidine-5'-phosphate: -0.3294
[1]; metabolite oxaloacetate
  Log2(fold change) oxaloacetate: -0.6486
[1]; metabolite p-aminobenzoate
  Log2(fold change) p-aminobenzoate: 0.0000
[1]; metabolite p-hydroxybenzoate
  Log2(fold change) p-hydroxybenzoate: 0.0000
[1]; metabolite pantothenate
  Log2(fold change) pantothenate: -0.1388
[1]; metabolite phenylalanine
  Log2(fold change) phenylalanine: -0.3732
[1]; metabolite phenylpyruvate
  Log2(fold change) phenylpyruvate: 0.0000
[1]; metabolite phosphoenolpyruvate
  Log2(fold change) phosphoenolpyruvate: -0.1822
[1]; metabolite prephenate
  Log2(fold change) prephenate: 0.5798
[1]; metabolite proline
  Log2(fold change) proline: -0.4229
[1]; metabolite pyridoxine
  Log2(fold change) pyridoxine: -0.3069
[1]; metabolite pyruvate
  Log2(fold change) pyruvate: -1.0960
[1]; metabolite riboflavin
  Log2(fold change) riboflavin: -0.1793
[1]; metabolite ribose
  Log2(fold change) ribose: -0.0760
[1]; metabolite ribose-phosphate
  Log2(fold change) ribose-phosphate: -0.9121
[1]; metabolite ribulose-5-phosphate
  Log2(fold change) ribulose-5-phosphate: -0.5577
[1]; metabolite serine
  Log2(fold change) serine: -0.1539
[1]; metabolite sn-glycerol-3-phosphate
  Log2(fold change) sn-glycerol-3-phosphate: 0.0054
[1]; metabolite succinate/Methylmalonic acid
  Log2(fold change) succinate/Methylmalonic acid: -0.5977
[1]; metabolite succinyl-CoA/methylmalonyl-CoA
  Log2(fold change) succinyl-CoA/methylmalonyl-CoA: 0.0000
[1]; metabolite taurine
  Log2(fold change) taurine: -0.2559
[1]; metabolite thiamine
  Log2(fold change) thiamine: -0.2060
[1]; metabolite threonine/homoserine
  Log2(fold change) threonine/homoserine: -0.2606
[1]; metabolite thymidine
  Log2(fold change) thymidine: 0.0000
[1]; metabolite thymine, log2 fold change
  Log2(fold changes) thymine: 0.0000
[1]; metabolite trehalose-6-Phosphate, log2 fold change
  Log2(fold changes) trehalose-6-Phosphate: 0.0000
[1]; metabolite tryptophan, log2 fold change
  Log2(fold changes) tryptophan: -0.8402
[1]; metabolite tyrosine, log2 fold change
  Log2(fold changes) tyrosine: -0.1716
[1]; metabolite uridine, log2 fold change
  Log2(fold changes) uridine: 0.0000
[2]; 5 × 10^8 to 1 × 10^9 3D7-A10 or Dd2-B2 parasites, 3–6 × IC50^72h
  outcome of resistance selections (continuous exposure or pulsing): did not result in MMV000787-resistant parasites
[2]; from failed selections in 3D7-A10 / Dd2-B2
  minimum inocula of resistance: above 5 × 10^8 parasites
[3]; 3D7-A10
  Ratio lowest IC50 8hr/IC50 72hr: 0.7
[3]; 8-h exposures, survival curves
  killing in stage specificity assay: incomplete killing
[3]; 3D7, 8 h, read-out: IC50^8h values at all tested stages, 8-h exposures, all asexual blood stages
  IC50: > 1 µM
[3]; 3D7, read-out: Early rings Mean IC50 (IC50^8h), 8-h exposure 0–8 hr, 3D7-A10, survival at 60 h
  IC50: 5.74 µM
[3]; 3D7, read-out: Early trophozoites Mean IC50 (IC50^8h), 8-h exposure 16–24 hr, 3D7-A10, survival at 60 h
  IC50: 3.31 µM
[3]; 3D7, read-out: Late rings Mean IC50 (IC50^8h), 8-h exposure 8–16 hr, 3D7-A10, survival at 60 h
  IC50: 7.87 µM
[3]; 3D7, read-out: Late trophozoites Mean IC50 (IC50^8h), 8-h exposure 24–32 hr, 3D7-A10, survival at 60 h
  IC50: 1.35 µM
[3]; 3D7, read-out: Schizonts Mean IC50 (IC50^8h), 8-h exposure 32–40 hr, 3D7-A10, survival at 60 h
  IC50: 5.91 µM
[3]; period when the parasite was most susceptible (lowest IC50^8h)
  Stage of peak activity (Figure 6): late trophozoites
[3]; stage(s) with the lowest IC50^8h
  Peak Activity (Table S1): Late Trophs
[4]
  IC50: 1.96 µM
